Reference: patent publication US20230109717A1 (GAIA BioMedicine Inc., priority 2020, published 2023)
“Also recorded” adds a separate entry of the source.

Columns and labels:
highly active NK cells [1] = test: Viability of freeze-thawed highly active NK cells (7-AAD staining, flow cytometry, FlowJo)
Experimental: The highly activated NK cells (1×10^5 cells/well) thawed under each condition were centrifuged on a 96-well plate (IWAKI, 4870-800SP), the supernatant was removed, and then a 7-amino-actinomycin D (7-AAD) solution diluted with PBS (Beckman Coulter, A 07704) was added to the cells to suspend them, and the suspension was incubated at room temperature (room temperature means 15 to 25° C., the same shall apply in the following experiments) for 20 minutes. The stained cells were measured by using a flow cytometer (BD LSR Fortessa, BD Biosciences).
The NK cells frozen for 48 hours or longer were thawed in a water bath at 37° C., and 1×10^5 cells were dispensed on a 96-well plate (IWAKI) immediately after the thawing. […] The cells dispensed immediately after thawing were centrifuged immediately after they were dispensed, and the cells of the other four groups were centrifuged after incubation of 3 hours, measurement was performed by the method for staining with 7-AAD described above, and the results were analyzed with the FlowJo software (FLOWJO, LLC) to calculate viable cell rates.
The NK cells frozen for 48 hours or longer were thawed at 37° C. in a water bath, and then 1×10^5 of the cells were dispensed on a 96-well plate immediately after the thawing. […] The cells dispensed immediately after thawing were centrifuged immediately after they were dispensed, and the cells of the other four groups were centrifuged after incubation of 3 hours, measurement was performed by the method for staining with 7-AAD described above, and the results were analyzed with the FlowJo software (FLOWJO, LLC) to calculate viable cell rates.
Then, measurement was performed by the method for staining with 7-AAD described above, and the results were analyzed with the FlowJo software. […] Then, measurement was performed by the method for staining with 7-AAD described above, and the results were analyzed with the FlowJo software. (8-3) The experiment was performed in the same manner as in (8-1), but (1) PBS, (2) Plasma-Lyte A, (3) Plasma-Lyte A containing 27.7 mEq/L of lactic acid (Nacalai Tesque, 20006-62), (4) Plasma-Lyte A containing 48.84 mg/L of MgSO4.7H2O (Nacalai Tesque, 21002-85), (5) Lactoringer, (6) Veen-F (Fuso Pharma), (7) Solita-T1 (AY Pharmaceuticals), (8) Solita-T3 (AY Pharmaceuticals), (9) 5% glucose injection solution (Terumo), and (10) RPMI medium were used as the solvents for dilution of thawed cells, and the cells were incubated at 37° C. for 3 hours. In the case of (3), lactic acid was added at the same concentration as the lactate concentration in Lactoringer, and neutrality of the solution was confirmed with litmus test paper. In the case of (4), MgSO4 was added at the same concentration as the MgSO4 concentration in HBSS. Measurement was then performed by the method for staining with 7-AAD described above, and the results were analyzed with the FlowJo software. (8-4) The experiment was performed in the same manner as in (8-2), but the cells were treated by using (1) PBS, (2) Plasma-Lyte A, (3) saline (OTSUKA NORMAL SALINE, Otsuka Pharmaceutical), (4) Bicanate (Otsuka Pharmaceutical), and (5) Solacet F (Terumo) as the solvents for dilution of thawed cells. Measurement was then performed by the method for staining with 7-AAD described above, and the results were analyzed with the FlowJo software. […] Immediately after completely thawed, the cells were diluted 10-fold in (1) Plasma-Lyte A, (2) saline, (3) RPMI 1640 medium, (4) Lactoringer, (5) 0.423 mM CaCl2 prepared in Plasma-Lyte A, and (6) 1.36 mM CaCl2, and left to stand at 37° C. for 3 hours. The CaCl2 concentration of (5) was the same as that in the RPMI 1640 medium, and the CaCl2 concentration of (6) was the same as that in Lactoringer. Measurement was then performed by the method for staining with 7-AAD described above, and the results were analyzed with the FlowJo software.

highly active NK cells [2] = test: Viable cell count and recovery rate of highly active NK cells after thawing, based on cell number at freezing; set-up: species or system human
Experimental: After the thawing, all the dilution and incubation operations were performed on a low-absorption 6-well plate.
The cells of the groups diluted in the media were incubated overnight at 37° C. under 5% CO2, and then the numbers of viable cells were counted. The experimental conditions are summarized below.
The NK cells obtained by the collection method 1 were suspended in PBS, and incubated at room temperature for 1 hour. The NK cells obtained by the collection method 2 were suspended in (1) the KBM501 medium, (2) KBM501 medium containing 30 μM 4-phenylbutyric acid, (3) KBM501 medium containing 30 μM tauroursodeoxycholic acid dihydrate (TUDCA, Tokyo Kasei Kogyo, T1567), and (4) KBM501 medium containing 30 μM 4-phenylbutyric acid and 30 μM TUDCA, and incubated at 37° C. for 2 hours under 5% CO2. […] After 1 hour, the cells were gently suspended, and number of viable cells was counted. After another 5-fold dilution in the KBM501 medium and incubation at 37° C. for 2 hours under 5% CO2, number of viable cells was counted, and the recovery rate based on the number of cells at the time of freezing was calculated.
(§1) After 1 and 3 hours, the cells were gently suspended, and viable cells were counted. In addition, after 1 hour, the cells were diluted 5-fold in the KBM501 medium, and incubated at 37° C. for 2 hours under 5% CO2, and viable cell were counted. Recovery rate of viable cells after the thawing based on the cell number at the time of freezing was calculated using the number of viable cells at each time point.
as §1, with “on the basis of” for “using”, “point after the thawing.” for “point.”

K562 cells = test: Cytotoxic activity rate (% Lysis) of freeze-thawed highly active NK cells against K562 cells; type: cell-based; conditions: Exmp. 7, collect. method 2, pretreatment KBM + 2.4% DMSO 2 h
Experimental: Cytotoxic activity can be expressed as the percentage of target cells killed by effector cells, and is calculated in accordance with the following equation.
(Cell death observed in co-culture with effector cells−Spontaneous cell death (negative control))/(Maximum cell death (positive control)−Spontaneous cell death (negative control))×100
For the measurement of cytotoxic activity, a group of the K562 cells reacted with the NK cells, a group consisting solely of the K562 cells as a negative control, and a group of the K562 cells fixed with 10% formalin as a positive control were prepared.
After incubation for the times indicated for the groups, the cells were collected, and prepared at a density of 2×10^6 cells/mL in 10% FBS/RPMI 1640.
The K562 cells (human chronic myelogenous leukemia cell line) were suspended in serum-free RPMI 1640 medium, stained with PKH26 Red Fluorescent Cell Linker Kit (Sigma, PKH26GL-1KT), and finally prepared at a density of 2×10^6 cells/mL in 10% FBS/RPMI 1640.
The NK cells and K562 cells were added and mixed in wells of 96-well plate (IWAKI, 4870-800SP) at a cell ratio of 1:1, and allowed to react at 37° C. for 2 hours under 5% CO2. After the reaction, the plate was centrifuged (500×g, 5 minutes), and the supernatant was removed. Then, a 7-AAD solution diluted with PBS was added to the cells to suspend the cells, and the suspension was incubated at room temperature for 20 minutes. […]
For the measurement of cytotoxic activity, a group of the NK cells reacted with the K562 cells, a group solely consisting of the K562 cells as a negative control, and a group of the K562 cells fixed with 10% formalin as a positive control were prepared.
The cells were thawed and diluted by the method described above, and a necessary amount of the cells were taken on the basis of the number of viable cells at the time of freezing, and then prepared at a density of 2×10^6 cells/mL in 10% FBS/RPMI 1640.
The K562 cells were suspended in serum-free RPMI 1640 medium, stained with PKH26 Red Fluorescent Cell Linker Kit, and then prepared at a density of 2×10^6 cells/mL in 10% FBS/RPMI 1640. […]
For the measurement of cytotoxic activity, a group of NK cells reacted with K562 cells, a group of K562 cells only as a negative control, and a group of K562 cells fixed with 10% formalin as a positive control were prepared. […]
(9-2) Cytotoxic activity was measured in the same manner as described in the section of (9-1), but after thawing and dilution, the cells were left to stand for up to 6 hours, and cytotoxic activity was measured by the method described in the section b) mentioned above at the time points of 2, 5, and 6 hours. In detail, the NK cells and K562 cells were added to each well of a 96-well plate (IWAKI, 4870-800SP) at a cell ratio of 1:1, mixed, and then allowed to react at 37° C. for 2 hours under 5% CO2.

highly active NK cells [3] = test: Optical microscope observation of highly active NK cells after freeze-thawing; type: cell-based, human; conditions: additive in KBM501 medium used for 10-fold dilution after thawing; 37° C. 3 hours (or 4° C. 3 hours then 37° C. 3 hours); cells washed with PBS
Experimental: The NK cells frozen for 48 hours or longer were thawed at 37° C. in a water bath, then diluted 10-fold in the solvents mentioned below, left to stand at the temperatures for the times mentioned below, then observed and photographed under an optical microscope.
<1> Diluted in the KBM501 medium, and left to stand at 37° C. for 3 hours. <2> Diluted in the KBM501 medium containing Z-Vad, and left to stand at 37° C. for 3 hours. <3> Diluted in the KBM501 medium containing methylprednisolone, and left to stand at 37° C. for 3 hours. <4> Diluted in the KBM501 medium containing dexamethasone, and left to stand at 37° C. for 3 hours. <5> Diluted in the KBM501 medium, and left to stand at 4° C. for 3 hours. <6> Diluted in the KBM501 medium containing methylprednisolone, and left to stand at 4° C. for 3 hours, and then at 37° C. for 3 hours. <7> Diluted in the KBM501 medium containing dexamethasone, and left to stand at 4° C. for 3 hours, and then at 37° C. for 3 hours.

With `O=C(O)CCCc1ccccc1` [4-PBA, 4-phenylbutyric acid] the Viability (highly active NK cells [1]; Exmp. 4, collect. method 1, pretreatment KBM + 10 μM 4-PBA 2 h, thawing PlasmaLyte + IL-2 1 h, then KBM o/n) was “A (“A” means 70% or higher)”, the “Recovery rate after the thawing” value (highly active NK cells [2]; pretreatment 2 hours with KBM501 medium supplemented with 30 μM additive before freezing, Example 5) was “improved” and the “Viability after the thawing” value (highly active NK cells [2]; treatment with KBM501 supplemented with 10 or 100 μM additive before freezing, viable cells counted after overnight incubation, Example 4) was “improved”.

`C[S+](C)[O-]` [DMSO, dimethyl sulfoxide] was tested, and the Activity (K562 cells; thawing PlasmaLyte + IL-2, R.T. 1 h) was “A (A means 70% or higher)”, the Activity (K562 cells; thawing PlasmaLyte + IL-2, R.T. 1 h, then KBM 2 h) was “A (A means 70% or higher)” and the Activity (K562 cells; thawing PlasmaLyte + IL-2, R.T. 3 h) was “A (A means 70% or higher)”. For the same compound, the Activity (K562 cells; thawing PlasmaLyte R.T. 1 h) was “A (A means 70% or higher)”, the Activity (K562 cells; thawing PlasmaLyte R.T. 1 h, then KBM 2 h) was “A (A means 70% or higher)” and the Activity (K562 cells; thawing PlasmaLyte R.T. 3 h) was “A (A means 70% or higher)”.

`[Cl-].[Cl-].[Mg+2]` [MgCl2, Magnesium chloride] was tested, and the Viability (highly active NK cells [1]; 100 mM as solution used at thawing, cells washed with KBM501 medium, conditions (12-4) and (12-5)) was “degraded”.

In the case of `O=C([O-])[C@H](O)[C@@H](O)[C@H](O)[C@H](O)CO.[Na+]` [gluconic acid, sodium gluconate], the “Viability of frozen highly active NK cells after thawing” value (highly active NK cells [1]; added to KBM501 medium used for dilution at thawing (5.02 mg/mL sodium gluconate), 37° C. 3 hours, Example 1) was “did not show improvement; also recorded: no improvement”.

In the case of Z-VAD, the “Viability of highly active NK cells after freeze-thawing (optical micrographs)” value (highly active NK cells [3]) was “not improved”.
